{"source": "patent US10874103B2", "about": "“Antibacterial composition comprising an acetal or a long-chain alkyl hexitane ether” (TEREOS STARCH & SWEETENERS BELGIUM, priority 2014, dated 2020)", "key": {"[1]": {"tested_on": "L. monocytogenes (CIP 103575), E. faecalis (ATCC® 29212™) and S. aureus (ATCC® 292213™)", "assay": "MIC microdilution, statements for all three Gram-positive strains together", "assay_type": "cell-based", "settings": "listed as Sorbitan dodecyl ether", "method": "The bacteriostatic properties of the derivatives are evaluated by measuring their minimum inhibitory concentration (MIC) on the bacteria tested. Such a measurement is made using the 96-well microplate microdilution method according to the conditions defined below.\nThe minimum inhibitory concentrations (MIC) are tested on Gram-positive bacterial strains according to the recommendations of the “Clinical Laboratory Standards Institute” (Clinical-Laboratory-Standards-Institute, 6th ed. Approved standard M100-S17. CLSI, Wayne, Pa., 2007).\nThe Gram-positive bacteria studied are as follows: L. monocytogenes (CIP 103575), E. faecalis (ATCC® 29212™) and S. aureus (ATCC® 292213™).\nThe cultures studied, freshly isolated (after incubation on a blood agar at 37° C. for 18 h), are taken up in sterile water (10 mL) until a 0.5 McFarland (Mc) suspension i.e. 1 to 2×10^8 CFU (bacteria)/cm^3 is obtained. The bacterial suspension was then diluted to obtain a final concentration of 5×10^5 CFU/cm^3.\nEach well contains an identical quantity of Mueller-Hinton medium (a rich medium for bacterial culture) and bacteria with final 5×10^5 CFU/cm^3.\nThe test compounds of interest are solubilized in 2.5% m of ethanol before being diluted to different concentrations two by two.\nOn the multiwell plate, a first series has been planned comprising the culture medium without the test compound of interest. […]"}, "[2]": {"tested_on": "Enterococci: E. faecalis strains", "assay": "MIC microdilution on wider panel (Example 8), E. faecalis strains", "assay_type": "cell-based", "method": "The cultures studied, freshly isolated (after incubation on a blood agar at 37° C. for 18 h), are taken up in sterile water (10 mL) until a 0.5 McFarland (Mc) suspension i.e. at 1 to 2×10^8 CFU (bacteria)/cm^3 is obtained. The bacterial suspension was then diluted to obtain a final concentration of 1×10^6 CFU/cm^3. Each well contains an identical quantity of Mueller-Hinton medium (a rich medium for bacterial culture) and bacteria with final 0.5×10^6 CFU/cm^3. The test compounds of interest are solubilized in ethanol or DMSO at 25 mg/mL before being diluted to different concentrations two by two. On the multiwell plate, a first series has been planned comprising the culture medium without the test compound of interest. It corresponds to the growth control (control well). These controls serve as reference for comparing bacterial growth with that of the subsequent wells comprising different concentrations of the test compound of interest. The second series of wells comprises the mother solution for the test compound of interest for a concentration in the wells of 256 mg (7 mM). Each series of wells was diluted two by two until the last series for a final concentration of 0.25 mg/L (0.0007 mM). Each concentration is duplicated in the same plate. The plate is incubated for 18 h at 37° C. […] If there is antibacterial activity, the bacterial growth is inhibited, which means that no turbidity or bacterial residue is present. The minimum inhibitory concentrations (MIC) are tested on Gram-positive bacterial strains according to the recommendations of the “Clinical Laboratory Standards Institute” (Clinical-Laboratory-Standards-Institute, 6th ed. Approved standard M100-S17. CLSI, Wayne, Pa., 2007). The clinical strains have been isolated in the Hospice de Lyon. […]"}}, "data": [{"substance": "Dodecyl-1,4-d-sorbitan [Example 2e]", "values": [{"measurement": "MIC / inhibitory concentration on the bacterial strains studied", "setting": "[1]", "result": 120, "unit": "µM"}, {"measurement": "Minimum inhibitory concentration (MIC) ATCC 29212", "setting": "[2]; E. faecalis ATCC 29212", "result": 8, "unit": "µg/mL"}, {"measurement": "Minimum inhibitory concentration (MIC) 1801", "setting": "[2]; clinical E. faecalis from urines, strain 015205261801", "result": 8, "unit": "µg/mL"}, {"measurement": "Minimum inhibitory concentration (MIC) 9901", "setting": "[2]; clinical E. faecalis from urines, strain 015206179901", "result": 16, "unit": "µg/mL"}]}]}
